biological target: T1, APOL1 (Homo sapiens, UniProt O14791); experiment: MultiTox-Fluor Multiplex Cytotoxicity Assay in tet-inducible APOL1 T-REx-HEK293 cells (cell rescue, ratio of dead to live cells); assay type: cell-based; conditions: tet-inducible transgenic APOL1 T-REx-HEK293 cell lines, 50 ng/mL tet, 24 hours; read-out: IP50 (i.e., IC50 for cell proliferation)
T1 sequence (O14791 1-398 S342G/I384M): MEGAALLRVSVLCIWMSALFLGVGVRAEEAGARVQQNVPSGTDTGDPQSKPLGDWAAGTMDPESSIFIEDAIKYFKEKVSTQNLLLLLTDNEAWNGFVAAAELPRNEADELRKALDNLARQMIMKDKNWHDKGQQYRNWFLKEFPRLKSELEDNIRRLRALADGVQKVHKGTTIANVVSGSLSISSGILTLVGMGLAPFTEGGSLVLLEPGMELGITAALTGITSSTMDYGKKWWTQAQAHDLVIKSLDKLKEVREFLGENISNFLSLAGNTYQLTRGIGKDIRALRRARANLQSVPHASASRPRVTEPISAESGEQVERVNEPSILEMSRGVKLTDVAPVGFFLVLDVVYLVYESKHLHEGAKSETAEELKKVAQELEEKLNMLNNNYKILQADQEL
Procedure, shortened: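 T-REx-HEK293 cells with tet-inducible APOL1 were treated with compound (10 μM top, 10-point 3-fold dilution, duplicate) plus 50 ng/mL tetracycline for 24 h at 37° C, in DMEM with 2% tet-free FBS. MultiTox-Fluor protease signals gave a dead/live ratio, normalized to no tet (100% viability) and tet alone (0%).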

SMILES | IC50
C[C@H]1C[C@@]2(CCN1Cc1cnn(C[C@@H](O)C(=O)N(C)C)c1)OCCc1c2sc(C(F)(F)F)c1CO [Compound 987, (2R)-2-hydroxy-3-[4-[[(2′S, 7R)-3-(hydroxymethyl)-2′-methyl-2-(trifluoromethyl)spiro[4,5-dihydrothieno[2,3-c]pyran-7,4′-piperidine]-1′-yl]methyl]pyrazol-1-yl]-N,N-dimethyl-propanamide] | < 100 nM
C[C@H]1C[C@@]2(CCN1Cc1ccc(F)cn1)OC[C@H](O)c1cc(Cl)sc12 [Compound 792] | 100 to 500 nM
CCc1cc2c(s1)CCO[C@@]21CCN(C[C@H]2C[C@@H](NC(=O)[C@@H]3CCCO3)C2)[C@@H](C)C1 [Compound 369] | 100 to 500 nM
C[C@H]1C[C@@]2(CCN1CC1(O)CCOCC1)OCCc1cc(CC(F)F)sc12 [Compound 600] | 100 to 500 nM
CCc1cc2c(s1)CCO[C@@]21CCN(Cc2cnc(N[C@@H](C)C(C)(C)O)nc2)[C@@H](C)C1 [Compound 213] | < 100 nM
CCc1cc2c(s1)CCOC21CCN(Cc2cn(CC(O)CF)nn2)C(C)C1 (stereo not drawn) [Compound 88] | < 100 nM
C[C@H]1C[C@@]2(CCN1Cc1ccc3c(c1)n(C)c(=O)n3C)OCCc1c2sc(C(F)(F)F)c1CO [Compound 877] | < 100 nM
CCc1cc2c(s1)CCOC21CCN(Cc2cnn(C)c2)C2(CCC2)C1 (stereo not drawn) [Compound 1042, 2″-ethyl-1′-((1-methyl-1H-pyrazol-4-yl)methyl)-6″,7″-dihydrodispiro[cyclobutane-1,2′-piperidine-4′,4″-thieno[3,2-c]pyran]] | 100 to 500 nM
CCc1cc2c(s1)CCO[C@@]21CCN(Cc2cn(-c3cncc(F)c3)nn2)[C@@H](C)C1 [Compound 71] | < 100 nM
C[C@H]1C[C@@]2(CCN1Cc1cnn(CC3(CO)COC3)c1)OCCc1c2sc(C(F)(F)F)c1CO [Compound 915] | < 100 nM
CCc1cc2c(s1)CCO[C@@]21CCN(Cc2cc(C)on2)[C@@H](C)C1 [Compound 287] | < 100 nM
CCc1cc2c(s1)CCO[C@@]21CCN(CC2CN(C(=O)N(C)C)C2)[C@@H](C)C1 [Compound 490] | 500 to 1000 nM
CCc1cc2c(s1)CCO[C@@]21CCN(CC2CN(C(=O)CN3CCOC3=O)C2)[C@@H](C)C1 [Compound 477] | < 100 nM
C[C@H]1C[C@@]2(CCN1Cc1cccc(OCC(N)=O)c1)OCCc1c2sc(Cl)c1CO [Compound 718] | 100 to 500 nM
CCc1cc2c(s1)CCO[C@@]21CCN(C[C@H]2C[C@@H](NC(=O)c3ccn(CC(C)C)n3)C2)[C@@H](C)C1 [Compound 317] | 100 to 500 nM
CCc1cc2c(s1)CCO[C@@]21CCN(Cc2cn(Cc3nc(C)no3)nn2)[C@@H](C)C1 [Compound 165] | < 100 nM
CCc1cc2c(s1)CCO[C@@]21CCN(CC2CN(C(=O)c3ccn(CO)n3)C2)[C@@H](C)C1 [Compound 475] | < 100 nM
C[C@H]1C[C@@]2(CCN1Cc1cnn(CC(O)C3(O)COC3)c1)OCCc1c2sc(C(F)(F)F)c1CO (stereo partly drawn) [Compound 933] | < 100 nM
CCc1cc2c(s1)CCO[C@@]21CCN(CC2CN(C(=O)CC3CS(=O)(=O)C3)C2)[C@@H](C)C1 [Compound 450] | 100 to 500 nM
C[C@H]1C[C@@]2(CCN1Cc1cnn(C)c1)OCC(O)c1cc(Cl)sc12 (single isomer, unassigned) [Compound 819] | < 100 nM
CC(O)Cn1cc(CN2CC[C@]3(C[C@@H]2C)OCCc2c3sc(C(F)(F)F)c2CO)cn1 (stereo partly drawn) [Compound 931] | < 100 nM

SMILES | IC50
CCc1cc2c(s1)CCO[C@@]21CCN(C[C@H]2C[C@@H](NC(=O)C3CNC(=O)O3)C2)[C@@H](C)C1 (stereo partly drawn) [Compound 361] | 100 to 500 nM
CCc1cc2c(s1)CCO[C@@]21CCN(Cc2cn(C3C[C@@H](CO)NC3=O)nn2)[C@@H](C)C1 (stereo partly drawn) [Compound 166] | 500 to 1000 nM
CC(C)C(O)Cn1cc(CN2CC[C@]3(C[C@@H]2C)OCCc2c3sc(C(F)(F)F)c2CO)cn1 (stereo partly drawn) [Compound 891, 1-[4-[[(2′S, 7R)-3-(hydroxymethyl)-2′-methyl-2-(trifluoromethyl)spiro[4,5-dihydrothieno[2,3-c]pyran-7,4′-piperidine]-1′-yl]methyl]pyrazol-1-yl]-3-methyl-butan-2-ol] | < 100 nM
C[C@H]1C[C@@]2(CCN1Cc1cnn(CC3CNC(=O)C3)c1)OCCc1c2sc(C(F)(F)F)c1CO (stereo partly drawn) [Compound 921] | < 100 nM
COCCC(O)Cn1cc(CN2CC[C@]3(C[C@@H]2C)OCCc2c3sc(C(F)(F)F)c2CO)cn1 (stereo partly drawn) [Compound 967] | < 100 nM
C[C@H]1C[C@@]2(CCN1Cc1cccc(OCCO)c1)OCCc1cc(Cl)sc12 [Compound 646] | < 100 nM
CCc1cc2c(s1)CCO[C@@]21CCN(C[C@H]2C[C@@H](NS(=O)(=O)c3ccc(C(N)=O)cc3)C2)[C@@H](C)C1 [Compound 413] | < 100 nM
CCc1cc2c(s1)CCO[C@@]21CCN(C[C@H]2C[C@@H](NC(=O)CC(C)(C)O)C2)[C@@H](C)C1 [Compound 346] | < 100 nM
CCCc1cc2c(s1)CCO[C@@]21CCN(Cc2cn(CCS(C)(=O)=O)nn2)[C@@H](C)C1 [Compound 513] | 100 to 500 nM
CCc1cc2c(s1)CCO[C@@]21CCN(Cc2cn(Cc3nccn3C)nn2)[C@@H](C)C1 [Compound 56] | < 100 nM
CCc1cc2c(s1)CCO[C@@]21CCN(Cc2cn(CC(C)(C)CCO)nn2)[C@@H](C)C1 [Compound 80] | 100 to 500 nM
CCc1cc2c(s1)CCOC21CCN(Cc2cn(CCCN3CC(O)C3)nn2)CC1 [Compound 1115] | 500 to 1000 nM
CCc1cc2c(s1)CCO[C@@]21CCN(Cc2cn(CCN3CCCC3=O)nn2)[C@@H](C)C1 [Compound 194] | 500 to 1000 nM
C[C@H]1C[C@@]2(CCN1Cc1cnn(CCS(C)(=O)=O)c1)OCCc1cc(CC(F)(F)F)sc12 [Compound 1032, (2′S, 7R)-2′-methyl-1′-[[1-(2-methylsulfonylethyl)pyrazol-4-yl]methyl]-2-(2,2,2-trifluoroethyl)spiro[4,5-dihydrothieno[2,3-c]pyran-7,4′-piperidine]] | < 100 nM
CCc1cc2c(s1)CCOC21CCN(Cc2cnc(N)s2)CC1 [Compound 1134] | 100 to 500 nM
Cc1cc2c(s1)CCO[C@@]21CCN(CC(O)C(N)=O)[C@@H](C)C1 (stereo partly drawn) [Compound 503] | 100 to 500 nM
CC1COC2(CCN(Cc3cn(CCS(C)(=O)=O)nn3)[C@@H](C)C2)c2cc(C(F)(F)F)sc21 (stereo partly drawn) [Compound 541] | < 100 nM
CCc1cc2c(s1)CCO[C@@]21CCN(Cc2cn(CC(C)(C)C3CCOCC3)nn2)[C@@H](C)C1 [Compound 100] | 100 to 500 nM
CCc1cc2c(s1)CCO[C@@]21CCN(Cc2cnc(OCC3(N)CCOC3)nc2)[C@@H](C)C1 (stereo partly drawn) [Compound 215] | < 100 nM
C#CC(C)N1CC[C@]2(C[C@@H]1C)OCCc1cc(Cl)sc12 (stereo partly drawn) [Compound 694, (2′S, 7R)-2-chloro-2′-methyl-1′-(1-methylprop-2-ynyl)spiro[4,5-dihydrothieno[2,3-c]pyran-7,4′-piperidine]] | 500 to 1000 nM
CCc1cc2c(s1)CCO[C@@]21CCN(CC2CN(C(=O)OC(C)(C)C)C2)[C@@H](C)C1 [Compound 420, tert-butyl 3-[[(2′S,4R)-2-ethyl-2′-methyl-spiro[6,7-dihydrothieno[3,2-c]pyran-4,4′-piperidine]-1′-yl]methyl]azetidine-1-carboxylate] | < 100 nM

From patent US20250171459A1, “2-METHYL-4',5'-DIHYDROSPIRO[PIPERIDINE-4,7'-THIENO[2,3-C]PYRAN] DERIVATIVES AS INHIBITORS OF APOL1 AND METHODS OF USING SAME” (Vertex Pharmaceuticals Incorporated, priority 2022, published 2025)
